Laboratory results from patent publication US5852210A, “Cinnamic acid derivatives” (G. D. Searle & Co., priority 1997, dated 1998).
Where a name gives a salt, the structure may show the parent alone.

Key:
[1] = biological target: T1, Human fibrinogen receptor (αIIb β3) (Homo sapiens, UniProt P05106+P08514); assay: Purified IIb/IIIa receptor assay (solid phase receptor assay); conditions: inhibition of binding of biotinylated human vitronectin (1 nM) to purified receptor; Table I
T1 construct: Human fibrinogen receptor (αIIb β3) was purified from outdated platelets; from tissue; host or cells: human outdated platelets
Method in brief: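 Platelet-purified αIIbβ3 (100 ng/well) coated overnight at 4 °C, then competed 2 h at room temperature against 1 nM biotinylated human vitronectin in TBS with 1.0 mM Ca/Mg/Mn, pH 7.4, 1% BSA; top compound 1.0×10^-4 M. Bound ligand detected by HRP anti-biotin, A450, normalized to maximum binding, four-parameter fit.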

[2] = biological target: T2, Human vitronectin receptor (αv β3) (Homo sapiens, UniProt P05106+P06756); assay: Vitronectin adhesion assay (solid phase receptor assay, αvβ3); assay type: binding; conditions: inhibition of binding of biotinylated human vitronectin (1 nM) to purified receptor; Table I; read-out: AvB3 IC50
T2 construct: Human vitronectin receptor (αv β3) was purified from human placenta; from tissue; host or cells: human placenta
Method in brief: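 Placental αvβ3 (100 ng/well) coated in TBS with 1 mM Ca, Mg, Mn, pH 7.4, then compound competed with 1 nM biotinylated vitronectin for 2 h at room temperature (top compound concentration 1.0×10^-4 M). Bound ligand detected with HRP anti-biotin/OPD at 450 nm; values normalized to maximum binding, four-parameter curve fit.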

T1 sequence (P08514 32-887 limits assumed): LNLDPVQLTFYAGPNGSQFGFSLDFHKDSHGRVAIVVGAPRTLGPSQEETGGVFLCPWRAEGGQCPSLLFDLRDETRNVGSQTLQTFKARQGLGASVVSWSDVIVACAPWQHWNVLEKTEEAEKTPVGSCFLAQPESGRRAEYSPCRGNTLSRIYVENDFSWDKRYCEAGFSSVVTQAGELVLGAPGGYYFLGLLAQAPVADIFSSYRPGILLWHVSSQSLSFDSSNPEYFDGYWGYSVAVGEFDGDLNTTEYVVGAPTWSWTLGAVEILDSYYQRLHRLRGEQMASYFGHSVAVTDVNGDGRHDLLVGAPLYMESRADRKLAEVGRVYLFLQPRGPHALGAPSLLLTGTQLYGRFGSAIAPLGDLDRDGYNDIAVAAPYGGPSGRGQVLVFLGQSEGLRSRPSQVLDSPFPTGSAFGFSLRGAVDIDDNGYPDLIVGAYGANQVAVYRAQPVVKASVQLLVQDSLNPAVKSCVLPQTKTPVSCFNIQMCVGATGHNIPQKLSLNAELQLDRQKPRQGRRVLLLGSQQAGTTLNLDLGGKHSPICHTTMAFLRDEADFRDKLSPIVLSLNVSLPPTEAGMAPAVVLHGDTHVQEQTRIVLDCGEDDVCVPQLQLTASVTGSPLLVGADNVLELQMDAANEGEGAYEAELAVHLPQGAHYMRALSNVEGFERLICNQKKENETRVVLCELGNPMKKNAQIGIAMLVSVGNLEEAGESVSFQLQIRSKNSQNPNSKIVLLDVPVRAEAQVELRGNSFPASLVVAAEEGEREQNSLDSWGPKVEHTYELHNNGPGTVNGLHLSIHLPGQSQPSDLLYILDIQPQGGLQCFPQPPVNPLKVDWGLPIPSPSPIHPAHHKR
T1 sequence (P08514 891-1039 limits assumed): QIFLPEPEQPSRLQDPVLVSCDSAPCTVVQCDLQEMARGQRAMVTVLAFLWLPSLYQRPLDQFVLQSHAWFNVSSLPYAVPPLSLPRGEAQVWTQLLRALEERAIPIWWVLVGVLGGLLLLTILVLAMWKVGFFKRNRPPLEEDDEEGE
T1 sequence (P05106 27-788): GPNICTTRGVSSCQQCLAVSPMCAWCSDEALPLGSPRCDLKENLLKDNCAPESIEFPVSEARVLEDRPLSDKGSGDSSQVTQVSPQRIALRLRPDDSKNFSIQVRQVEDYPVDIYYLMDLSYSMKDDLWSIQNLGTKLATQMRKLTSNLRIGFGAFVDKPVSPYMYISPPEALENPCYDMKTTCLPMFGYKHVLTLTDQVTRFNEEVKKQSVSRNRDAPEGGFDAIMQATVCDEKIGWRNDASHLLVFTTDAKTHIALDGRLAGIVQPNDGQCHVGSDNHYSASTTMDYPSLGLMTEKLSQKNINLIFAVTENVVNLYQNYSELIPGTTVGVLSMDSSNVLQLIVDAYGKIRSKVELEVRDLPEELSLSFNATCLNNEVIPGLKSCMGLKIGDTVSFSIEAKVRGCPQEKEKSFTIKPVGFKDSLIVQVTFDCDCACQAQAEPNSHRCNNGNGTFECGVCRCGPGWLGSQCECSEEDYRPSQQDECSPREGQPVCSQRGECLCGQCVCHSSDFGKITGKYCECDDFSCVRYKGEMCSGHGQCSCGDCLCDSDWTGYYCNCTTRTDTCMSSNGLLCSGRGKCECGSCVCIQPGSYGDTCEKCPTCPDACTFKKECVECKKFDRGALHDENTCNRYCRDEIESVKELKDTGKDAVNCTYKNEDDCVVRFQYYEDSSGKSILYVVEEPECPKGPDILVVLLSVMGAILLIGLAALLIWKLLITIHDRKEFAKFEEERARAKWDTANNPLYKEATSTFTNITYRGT
T2 sequence (P06756 31-889 limits assumed): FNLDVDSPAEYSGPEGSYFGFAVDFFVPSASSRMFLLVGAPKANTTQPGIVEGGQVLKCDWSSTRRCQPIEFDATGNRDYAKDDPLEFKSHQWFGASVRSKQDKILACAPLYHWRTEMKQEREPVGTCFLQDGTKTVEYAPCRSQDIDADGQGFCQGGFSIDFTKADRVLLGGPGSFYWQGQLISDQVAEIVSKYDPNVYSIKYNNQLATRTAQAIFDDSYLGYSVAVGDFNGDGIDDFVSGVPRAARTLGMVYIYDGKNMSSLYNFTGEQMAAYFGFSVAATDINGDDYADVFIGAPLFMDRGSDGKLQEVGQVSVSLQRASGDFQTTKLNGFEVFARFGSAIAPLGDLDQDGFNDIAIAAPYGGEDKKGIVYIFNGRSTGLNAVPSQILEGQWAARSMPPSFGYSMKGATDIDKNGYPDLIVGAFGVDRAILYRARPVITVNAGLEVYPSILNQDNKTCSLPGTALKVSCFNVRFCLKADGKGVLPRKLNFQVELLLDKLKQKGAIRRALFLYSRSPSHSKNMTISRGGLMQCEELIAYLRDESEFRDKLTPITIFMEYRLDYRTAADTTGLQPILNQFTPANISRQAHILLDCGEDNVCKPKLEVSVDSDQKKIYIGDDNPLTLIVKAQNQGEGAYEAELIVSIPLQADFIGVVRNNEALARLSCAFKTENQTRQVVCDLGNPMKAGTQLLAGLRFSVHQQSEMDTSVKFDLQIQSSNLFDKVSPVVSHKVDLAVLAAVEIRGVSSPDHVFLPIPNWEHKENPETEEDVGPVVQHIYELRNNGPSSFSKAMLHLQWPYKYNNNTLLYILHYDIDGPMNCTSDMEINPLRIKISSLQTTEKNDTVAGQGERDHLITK
T2 sequence (P06756 891-1048 limits assumed): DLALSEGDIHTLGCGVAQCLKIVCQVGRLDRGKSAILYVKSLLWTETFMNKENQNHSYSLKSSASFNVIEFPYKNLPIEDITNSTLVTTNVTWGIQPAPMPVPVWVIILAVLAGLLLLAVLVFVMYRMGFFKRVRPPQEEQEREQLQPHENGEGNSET
T2 sequence (P05106 27-788): as the sequence (P05106 27-788) above

Row | Compound | IC50 [1] [nM] | IC50 [2] [nM]
1 | O=C(O)/C=C/c1ccc(/C=C/c2cccc(NC3=NCCCS3)c2)cc1 [Example 100, 3-[4-[2-[3-[(5,6-dihydro-4H-thiazin-2-yl)amino]phenyl]ethenyl]phenyl]propenoic acid, trifluoroacetate salt] | 664 | 30.6
2 | O=C(O)/C=C/c1ccc(OCc2cccc(NC3=NCCCN3)c2)cc1 [Example 101, 3-[4-[[3-[(1,4,5,6-tetrahydropyrimidin-2-yl)amino]phenyl]methoxy]phenyl]propenoic acid, trifluoroacetate salt] | 118 | 42.6
3 | N=C(N)Nc1cccc(-c2nc(-c3cccc(/C=C/C(=O)O)c3)co2)c1 [Example 102, 3-[3-[2-[3-[(aminoiminomethyl)amino]phenyl]oxazol-4-yl]phenyl]propenoic acid, trifluoroacetate salt] | 4480 | 1940
4 | N=C(N)Nc1cccc(-c2coc(-c3ccc(C=CC(=O)O)cc3)n2)c1 [Example 103, 3-[4-[4-[3-[(aminoiminomethyl)amino]phenyl]oxazol-2-yl]phenyl]propenoic acid] | 0.9 | 32100
5 | N=C(N)Nc1cccc(-c2ncc(-c3ccc(/C=C/C(=O)O)cc3)[nH]2)c1 [Example 104, 3-[4-[2-[3-[(aminoiminomethyl)amino]phenyl]-1H-imidazol-5-yl]phenyl]propenoic acid, trifluoroacetate salt] | 24.5 | 17300
